Laboratory results published in patent US20250017889A1, “INHIBITORS OF P1B-TYPE ATPASES” (THE CURATORS OF THE UNIVERSITY OF MISSOURI, priority 2021, published 2025).

Key:
[1] = test system: 4T1, B16 and HEK293 cell lines; experiment: Cellular copper concentrations by ICP-MS; type: cell-based; conditions: 10 μM, 24 hours
Experimental: Since ATP7A functions in copper export from cells, an inhibitor of ATP7A activity would be expected to increase cellular copper concentrations. […] After 24 hours, cellular copper concentrations were measured using inductively coupled plasma mass spectroscopy (ICP-MS).

[2] = test system: Cu^S cells complemented with ATP7A; experiment: Copper toxicity in Cu^S cells complemented with ATP7A; type: cell-based; conditions: 10 μM, 50% cytotoxic copper concentration
From the text: 8A illustrates a copper sensitive fibroblast cell line (Cu^S) generated by deleting genes encoding ATP7A, metallothionein-I (MT-I) and metallothionein-II (MT-II). Cu^S cells cannot be propagated in regular medium (DMEM) unless a copper chelator (BCS) is supplied to the medium.
Cu^S cell lines were derived that were complemented by either ATP7A, ATP7B or MT-II.

4T1 mammary cancer cells = experiment: Orthotopic 4T1 mammary tumor growth and lung metastasis in mice; type: in vivo, BALB/c mice
ATP7A(E1030K) = target: T1, ATP7A(E1030K) (Homo sapiens, UniProt Q04656, E1030K); experiment: Microscale thermophoresis (MST) binding to GFP-ATP7A(E1030K) mutant; conditions: relative to wild type ATP7A
T1 construct: expressed in transfected cells; host or cells: HEK293 (detergent-free lysate)
T1 sequence (Q04656 1-1500 E1030K): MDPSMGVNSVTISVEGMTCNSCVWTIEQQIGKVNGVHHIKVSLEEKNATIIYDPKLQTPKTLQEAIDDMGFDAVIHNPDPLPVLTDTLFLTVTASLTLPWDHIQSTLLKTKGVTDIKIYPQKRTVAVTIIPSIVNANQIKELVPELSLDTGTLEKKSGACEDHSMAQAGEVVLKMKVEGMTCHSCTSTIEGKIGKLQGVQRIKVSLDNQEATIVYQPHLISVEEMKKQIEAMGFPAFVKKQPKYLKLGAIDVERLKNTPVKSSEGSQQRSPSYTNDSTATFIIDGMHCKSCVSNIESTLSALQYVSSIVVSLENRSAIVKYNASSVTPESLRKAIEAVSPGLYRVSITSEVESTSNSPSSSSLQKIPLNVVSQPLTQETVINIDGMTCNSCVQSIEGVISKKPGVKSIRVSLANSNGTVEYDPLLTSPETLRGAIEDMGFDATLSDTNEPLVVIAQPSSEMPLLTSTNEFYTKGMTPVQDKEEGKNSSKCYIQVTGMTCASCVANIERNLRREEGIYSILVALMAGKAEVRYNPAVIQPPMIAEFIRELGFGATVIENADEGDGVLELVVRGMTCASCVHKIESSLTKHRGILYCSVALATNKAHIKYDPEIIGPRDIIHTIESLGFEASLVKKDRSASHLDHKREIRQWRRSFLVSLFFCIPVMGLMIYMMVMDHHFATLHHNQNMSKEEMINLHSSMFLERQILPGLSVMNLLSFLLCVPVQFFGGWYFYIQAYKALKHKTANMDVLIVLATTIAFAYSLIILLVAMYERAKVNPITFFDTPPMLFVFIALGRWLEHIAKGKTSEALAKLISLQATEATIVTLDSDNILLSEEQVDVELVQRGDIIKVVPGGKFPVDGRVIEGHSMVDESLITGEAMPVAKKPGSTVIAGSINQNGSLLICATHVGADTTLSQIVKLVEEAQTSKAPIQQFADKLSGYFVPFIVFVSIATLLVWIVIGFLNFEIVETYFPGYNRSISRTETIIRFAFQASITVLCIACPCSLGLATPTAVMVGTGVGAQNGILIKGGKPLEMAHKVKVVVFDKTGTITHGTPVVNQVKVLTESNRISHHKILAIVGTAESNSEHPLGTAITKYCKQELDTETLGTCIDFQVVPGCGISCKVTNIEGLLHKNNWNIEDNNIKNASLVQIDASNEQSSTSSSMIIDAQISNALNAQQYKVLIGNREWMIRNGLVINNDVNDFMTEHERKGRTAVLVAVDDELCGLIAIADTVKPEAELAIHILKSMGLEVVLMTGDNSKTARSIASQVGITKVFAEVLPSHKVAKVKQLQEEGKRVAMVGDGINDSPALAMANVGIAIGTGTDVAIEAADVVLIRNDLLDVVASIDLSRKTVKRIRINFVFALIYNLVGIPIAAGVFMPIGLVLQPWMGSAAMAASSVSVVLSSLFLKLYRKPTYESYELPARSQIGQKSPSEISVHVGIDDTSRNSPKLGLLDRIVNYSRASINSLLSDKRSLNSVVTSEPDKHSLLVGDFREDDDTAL
From the text: 7A is a model of MKV3-coordinating residues in ATP7A which are identical to those of ATP7B except that the negatively charged glutamate at position 1030 (E1030) of ATP7A corresponds to a positively lysine at position 1013 (K1013) in ATP7B. […] To confirm this the E1030 residue in ATP7A was mutated to a lysine to generate an ATP7A(E1030K) mutant protein.

[3] = test system: ATP7A trafficking in 4T1 breast cancer cells; experiment: Copper-stimulated trafficking of ATP7A by immunofluorescence microscopy; type: cell-based; conditions: 10 μM, 4 h, 4T1 cells
Experimental: Since the copper-stimulated trafficking of ATP7A is dependent on its transport activity, an inhibitor of ATP7A would be expected to block copper-stimulated trafficking of ATP7A. 4T1 breast cancer cells were pre-grown on glass coverslips for 16 hours in media containing 10 μM of the copper chelator bathocuproine disulfonate to create a baseline of low copper levels. […] After 4 h, the cells were fixed, permeabilized and stained with anti-ATP7A antibodies (green). Nuclei were labeled with DAPI stain. In vehicle treated control cells, the ATP7A protein was strongly detected in the perinuclear region (13A), which is consistent with its known location in the trans-Golgi compartment. As expected, the copper treatment stimulated ATP7A trafficking from the perinuclear region into cytoplasmic vesicles (13B).

4T1, B16 and LLC cells = experiment: Sensitivity of cells to elevated copper concentrations; type: cell-based; conditions: 10 μM, 48 h
From the text: It is well-known that copper export via ATP7A is the major mechanism by which cells are protected against rising copper levels, which is facilitated by Cu-stimulated trafficking of ATP7A from the trans-Golgi to the plasma membrane. Therefore, a predicted consequence of an ATP7A inhibitor would be an increase of the sensitivity of cells to high copper concentrations.

[4] = test system: tyrosinase activity in B16 melanoma cells; experiment: Tyrosinase activity in wild type B16 melanoma cells (L-DOPA to DOPAchrome), proxy for ATP7A inhibition; type: cell-based
From the text: Tyrosinase is a cuproenzyme involved in melanogenesis that receives copper via ATP7A in the secretory pathway. […] Thus, reductions in tyrosinase activity in wild type B16 cells can be used as a proxy for inhibition of ATP7A. […]

[5] = intravenous 50 mg/kg every Tuesday and Thursday for 3 weeks
[6] = subcutaneous 50 mg/kg every Monday, Wednesday and Friday for 3 weeks

`N#CC(C(=O)Nc1cccc(C(F)(F)F)c1)C(=S)Nc1ccccc1Cl` (centres unmarked) [MKV3] was tested, and the cellular copper concentrations [1] was “significantly increased”, the copper toxicity [2] was “enhanced copper toxicity” and the metastatic lung burden (4T1 mammary cancer cells; [5]) was “reduced”. For the same molecule, the “weights of 4T1 primary tumors” value (4T1 mammary cancer cells; [5]) was “reduced”, the lung metastasis (4T1 mammary cancer cells; [6]) was “significantly reduced” and the primary tumor growth (4T1 mammary cancer cells; [6]) was “significantly reduced”. The “increase of binding affinity by E1030K mutation in ATP7A” value (ATP7A(E1030K)) was “approximately 2.7 fold”, the “copper-stimulated trafficking of ATP7A” value [3] was “blocked” and the copper toxicity (4T1, B16 and LLC cells) was “strongly augmented copper toxicity”. The “in situ tyrosinase activity” value ([4]; 5 μM, 24 h, wild type B16 melanoma cells) was “loss of tyrosinase activity” and the IC50 ([4]; Mus musculus, B16 cells) was 2.96 ± 0.007 µM.
